# Experimental data: the NIST ThermoML archive (doi:10.1016/j.jct.2016.10.005)
# Numbers after ± are expanded uncertainties.
# Assay: excess molar enthalpy (molar enthalpy of mixing); xn = mol fraction of the nth substance listed
# Settings: 100 kPa, Liquid, Flow calorimetry
smiles,measurement,setting,value
C1CCCCC1 [cyclohexane] + CCCO,excess molar enthalpy,"298.15 K, x1 = 0.0503",0.091 ± 0.01 kJ/mol
same,excess molar enthalpy,"298.15 K, x1 = 0.1005",0.173 ± 0.011 kJ/mol
same,excess molar enthalpy,"298.15 K, x1 = 0.1499",0.247 ± 0.011 kJ/mol
same,excess molar enthalpy,"298.15 K, x1 = 0.2005",0.316 ± 0.011 kJ/mol
same,excess molar enthalpy,"298.15 K, x1 = 0.2499",0.378 ± 0.011 kJ/mol
same,excess molar enthalpy,"298.15 K, x1 = 0.3005",0.435 ± 0.011 kJ/mol
same,excess molar enthalpy,"298.15 K, x1 = 0.3503",0.486 ± 0.011 kJ/mol
same,excess molar enthalpy,"298.15 K, x1 = 0.4003",0.531 ± 0.011 kJ/mol
same,excess molar enthalpy,"298.15 K, x1 = 0.4501",0.569 ± 0.011 kJ/mol
same,excess molar enthalpy,"298.15 K, x1 = 0.4998",0.599 ± 0.011 kJ/mol
same,excess molar enthalpy,"298.15 K, x1 = 0.5504",0.623 ± 0.011 kJ/mol
same,excess molar enthalpy,"298.15 K, x1 = 0.6006",0.637 ± 0.011 kJ/mol
same,excess molar enthalpy,"298.15 K, x1 = 0.6503",0.642 ± 0.011 kJ/mol
same,excess molar enthalpy,"298.15 K, x1 = 0.6995",0.636 ± 0.011 kJ/mol
same,excess molar enthalpy,"298.15 K, x1 = 0.8005",0.582 ± 0.011 kJ/mol
same,excess molar enthalpy,"298.15 K, x1 = 0.8497",0.53 ± 0.011 kJ/mol
same,excess molar enthalpy,"298.15 K, x1 = 0.9005",0.456 ± 0.011 kJ/mol
same,excess molar enthalpy,"298.15 K, x1 = 0.9502",0.346 ± 0.011 kJ/mol
same,excess molar enthalpy,"313.15 K, x1 = 0.0503",0.107 ± 0.011 kJ/mol
same,excess molar enthalpy,"313.15 K, x1 = 0.1005",0.208 ± 0.011 kJ/mol
same,excess molar enthalpy,"313.15 K, x1 = 0.1499",0.3 ± 0.011 kJ/mol
same,excess molar enthalpy,"313.15 K, x1 = 0.2005",0.388 ± 0.011 kJ/mol
same,excess molar enthalpy,"313.15 K, x1 = 0.2498",0.467 ± 0.011 kJ/mol
same,excess molar enthalpy,"313.15 K, x1 = 0.3004",0.541 ± 0.011 kJ/mol
same,excess molar enthalpy,"313.15 K, x1 = 0.3502",0.607 ± 0.011 kJ/mol
same,excess molar enthalpy,"313.15 K, x1 = 0.4001",0.666 ± 0.012 kJ/mol
same,excess molar enthalpy,"313.15 K, x1 = 0.45",0.717 ± 0.012 kJ/mol
same,excess molar enthalpy,"313.15 K, x1 = 0.4997",0.758 ± 0.012 kJ/mol
same,excess molar enthalpy,"313.15 K, x1 = 0.5502",0.79 ± 0.012 kJ/mol
same,excess molar enthalpy,"313.15 K, x1 = 0.6006",0.81 ± 0.012 kJ/mol
same,excess molar enthalpy,"313.15 K, x1 = 0.6503",0.819 ± 0.012 kJ/mol
same,excess molar enthalpy,"313.15 K, x1 = 0.6994",0.813 ± 0.012 kJ/mol
same,excess molar enthalpy,"313.15 K, x1 = 0.7503",0.791 ± 0.012 kJ/mol
same,excess molar enthalpy,"313.15 K, x1 = 0.8005",0.75 ± 0.012 kJ/mol
same,excess molar enthalpy,"313.15 K, x1 = 0.8497",0.689 ± 0.012 kJ/mol
same,excess molar enthalpy,"313.15 K, x1 = 0.9005",0.598 ± 0.012 kJ/mol
same,excess molar enthalpy,"313.15 K, x1 = 0.9502",0.459 ± 0.012 kJ/mol
CC1CCCCC1 [methylcyclohexane] + CCCO,excess molar enthalpy,"298.15 K, x1 = 0.0498",0.075 ± 0.01 kJ/mol
same,excess molar enthalpy,"298.15 K, x1 = 0.1005",0.144 ± 0.01 kJ/mol
same,excess molar enthalpy,"298.15 K, x1 = 0.1504",0.207 ± 0.01 kJ/mol
same,excess molar enthalpy,"298.15 K, x1 = 0.2",0.265 ± 0.011 kJ/mol
same,excess molar enthalpy,"298.15 K, x1 = 0.2504",0.321 ± 0.011 kJ/mol
same,excess molar enthalpy,"298.15 K, x1 = 0.3005",0.372 ± 0.011 kJ/mol
same,excess molar enthalpy,"298.15 K, x1 = 0.3501",0.419 ± 0.011 kJ/mol
same,excess molar enthalpy,"298.15 K, x1 = 0.3998",0.462 ± 0.011 kJ/mol
same,excess molar enthalpy,"298.15 K, x1 = 0.4503",0.501 ± 0.011 kJ/mol
same,excess molar enthalpy,"298.15 K, x1 = 0.5004",0.533 ± 0.011 kJ/mol
same,excess molar enthalpy,"298.15 K, x1 = 0.55",0.559 ± 0.011 kJ/mol
same,excess molar enthalpy,"298.15 K, x1 = 0.5998",0.577 ± 0.011 kJ/mol
same,excess molar enthalpy,"298.15 K, x1 = 0.6497",0.587 ± 0.011 kJ/mol
same,excess molar enthalpy,"298.15 K, x1 = 0.6995",0.587 ± 0.011 kJ/mol
same,excess molar enthalpy,"298.15 K, x1 = 0.7505",0.574 ± 0.011 kJ/mol
same,excess molar enthalpy,"298.15 K, x1 = 0.7996",0.549 ± 0.011 kJ/mol
same,excess molar enthalpy,"298.15 K, x1 = 0.8495",0.508 ± 0.011 kJ/mol
same,excess molar enthalpy,"298.15 K, x1 = 0.9002",0.446 ± 0.011 kJ/mol
same,excess molar enthalpy,"313.15 K, x1 = 0.0498",0.1 ± 0.011 kJ/mol
same,excess molar enthalpy,"313.15 K, x1 = 0.1005",0.195 ± 0.011 kJ/mol
same,excess molar enthalpy,"313.15 K, x1 = 0.1505",0.283 ± 0.011 kJ/mol
same,excess molar enthalpy,"313.15 K, x1 = 0.2",0.365 ± 0.011 kJ/mol
same,excess molar enthalpy,"313.15 K, x1 = 0.2504",0.443 ± 0.011 kJ/mol
same,excess molar enthalpy,"313.15 K, x1 = 0.3005",0.515 ± 0.011 kJ/mol
same,excess molar enthalpy,"313.15 K, x1 = 0.3502",0.581 ± 0.011 kJ/mol
same,excess molar enthalpy,"313.15 K, x1 = 0.3998",0.64 ± 0.012 kJ/mol
same,excess molar enthalpy,"313.15 K, x1 = 0.4503",0.694 ± 0.012 kJ/mol
same,excess molar enthalpy,"313.15 K, x1 = 0.5005",0.74 ± 0.012 kJ/mol
same,excess molar enthalpy,"313.15 K, x1 = 0.55",0.781 ± 0.012 kJ/mol
same,excess molar enthalpy,"313.15 K, x1 = 0.5999",0.798 ± 0.012 kJ/mol
same,excess molar enthalpy,"313.15 K, x1 = 0.6497",0.81 ± 0.012 kJ/mol
same,excess molar enthalpy,"313.15 K, x1 = 0.6995",0.808 ± 0.012 kJ/mol
same,excess molar enthalpy,"313.15 K, x1 = 0.7505",0.79 ± 0.012 kJ/mol
same,excess molar enthalpy,"313.15 K, x1 = 0.7996",0.756 ± 0.012 kJ/mol
same,excess molar enthalpy,"313.15 K, x1 = 0.8495",0.702 ± 0.012 kJ/mol
same,excess molar enthalpy,"313.15 K, x1 = 0.9002",0.619 ± 0.012 kJ/mol
same,excess molar enthalpy,"313.15 K, x1 = 0.9499",0.486 ± 0.012 kJ/mol
